Measured values taken from US8431522B2, “Methods of inhibiting tumor cell proliferation” (The Board of Trustees of the University of Illinois, priority 2003, dated 2013).
“Also recorded” adds a separate entry of the source. Non-standard residues stand in square brackets, D forms with d. No end group written: not given here.

Columns and labels:
[1] = system: GFP-FoxM1B fusion protein; experiment: Localization of GFP-FoxM1B fusion protein in transfected U2OS cells (fluorescence); format: cell-based, human; conditions: for targeting of GFP-FoxM1B protein to the nucleolus: cotransfection of expression vector
Source text: FIGS. 7A-H show nuclear localization of GFP-FoxM1B fusion protein following treatment with either pharmacological kinase inhibitors or dominant negative kinases. U20S cells were transiently transfected with CMV GFP-FoxM1B with the indicated pharmacological kinase inhibitors (B-D) or dominant-negative kinase expression vectors (E-H). Cells in panel (A) were untreated.
U2OS cells were transiently transfected in 2 well chamber slides (Nunc) with CMV GFP-FoxM1B expression constructs in the presence or absence of either CMV WT T7-p19^ARF, CMV HA-p19^ARF, or CMV expression constructs containing either N-terminal mutant T7-p19^ARF proteins (Δ1-14, Δ15-25, or Δ26-37) or V5-TAT-p19^ARF proteins (26-44; SEQ ID NO: 11, or 26-55; SEQ ID NO: 12). U2OS cells were transiently transfected with CMV EGFP expression vector containing the TAT-p19^ARF proteins (26-44; SEQ ID NO: 11, or 26-55; SEQ ID NO: 12). Forty-eight hours post transfection, cells were fixed in 4% Para-formaldehyde for 20 minutes at room temperature. GFP fluorescence or immuno-fluorescence with anti-HA antibody following TRITC conjugated secondary antibody was detected using a Zeiss microscope. U2OS cells were treated with 12 μM of the arrrarrKFVRSRRPRTASCALAFVN (SEQ ID NO: 10) peptide for 24 hours and then analyzed for TRITC fluorescence as described above.

[2] = target: T1, FoxM1B protein (Homo sapiens, UniProt Q08050); experiment: Co-immunoprecipitation of V5-tagged p19ARF sequences with GFP-FoxM1B from transfected U2OS extracts; format: binding; conditions: V5 antibody IP, GFP Western blot
T1 construct: expressed in transfected cells; host or cells: U2OS (human osteosarcoma) cells, transient transfection
T1 sequence (Q08050 1-748 isoform Q08050-2): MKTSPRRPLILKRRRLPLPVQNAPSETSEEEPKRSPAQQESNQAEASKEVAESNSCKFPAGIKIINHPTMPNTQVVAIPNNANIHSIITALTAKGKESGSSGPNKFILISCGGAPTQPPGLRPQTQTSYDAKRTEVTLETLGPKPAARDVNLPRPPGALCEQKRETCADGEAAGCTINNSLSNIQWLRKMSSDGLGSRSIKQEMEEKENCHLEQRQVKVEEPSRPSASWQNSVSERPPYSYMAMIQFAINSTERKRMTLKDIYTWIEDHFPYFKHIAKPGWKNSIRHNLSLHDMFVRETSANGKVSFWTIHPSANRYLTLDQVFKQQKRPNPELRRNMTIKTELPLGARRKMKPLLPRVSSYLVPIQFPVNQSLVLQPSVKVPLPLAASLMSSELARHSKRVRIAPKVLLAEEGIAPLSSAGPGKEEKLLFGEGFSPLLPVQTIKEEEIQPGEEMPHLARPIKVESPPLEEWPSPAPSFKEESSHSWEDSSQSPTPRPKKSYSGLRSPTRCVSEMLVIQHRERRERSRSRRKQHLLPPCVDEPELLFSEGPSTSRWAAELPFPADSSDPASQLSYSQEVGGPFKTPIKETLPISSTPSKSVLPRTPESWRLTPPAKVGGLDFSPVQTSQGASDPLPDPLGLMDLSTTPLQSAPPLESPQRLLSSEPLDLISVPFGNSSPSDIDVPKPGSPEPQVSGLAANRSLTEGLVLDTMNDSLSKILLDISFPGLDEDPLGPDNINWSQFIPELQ
Experimental: The p19 protein was immunoprecipitated from transfected protein extracts with V5 epitope antibody followed by Western blot analysis with GFP monoclonal antibody.
To identify p19 protein sequences that are sufficient for association with FoxM1B protein, Co-IP assays were performed with protein extracts prepared from U2OS cells that were transiently transfected with CMV GFP-FoxM1B expression plasmid and the CMV expression vector containing the V5 epitope tagged p19^ARF 26-44 or p19^ARF 26-55 sequences. At the amino terminus of either the p19^ARF sequences 26 to 44 or 26 to 55, we placed the protein transduction/nuclear localization domain ([…]; SEQ ID NO: 13) from the HIV-TAT protein (Becker-Hapak et al., 2001, Methods 24:247-256). Protein extracts were incubated with the V5 epitope tag antibody to IP the p19 protein followed by Western blot analysis with GFP monoclonal antibody to detect the GFP-FoxM1B fusion protein.

[3] = system: FoxM1B transcriptional activity; experiment: FoxM1B transcription assay with 6X FoxM1B TATA-luciferase reporter in transfected U2OS cells; format: cell-based, human
Experimental: U20S TetR cells were transiently co-transfected with the reporter 6X-FoxM1B-TATA-Luciferase and CMV-TO-FoxM1B (500 ng) alone or with increasing amounts of either CMV-DN-Cdk1, Cdk1 pharmacological inhibitor Alsterpaullone or CMV-Myt1. Results are expressed as the percent activity with respect to wild-type FoxM1B using four separate transfection experiments were performed in triplicate to calculate ±SD.
U20S TetR cells were transiently co-transfected with the reporter 6X-FoxM1B-TATA-Luciferase and CMV-TO-FoxM1B (500 ng) with CMV-DN-p90Rsk, CMV-DN-Ras or DN-AKT or with 50 μM of either U0126 or Ly294002 alone or together or with 25 μM of Akt inhibitor. Four separate transfection experiments were performed in triplicate to calculate ±SD.
A 6X FoxM1B/FoxA TATA-Luciferase utilized 6 copies of the FoxM1B/FoxA binding site (TTTGTTTGTTTG; SEQ ID NO: 6) from the cdx-2 promoter region driving expression of the CMV-TATA box luciferase reporter gene as described previously (Rausa et al., 2003, Mol. Cell. Biol. 23:437-449; Samadani et al., 1996, Mol. Cell. Biol. 16:6273-6284; Ye et al., 1997, Mol. Cell Biol. 17:1626-1641).
Inhibiting Cdk1 activity with either dominant negative (DN) Cdk1 or a pharmacologically active concentration of Alsterpaullone (1 μM) caused an 80% to 90% reduction in FoxM1B transcriptional activity (FIG. 6C). […] Consistent with these findings, stimulation of Cdk1 activity by co-transfection of either CMV Cdc25B or Cdc25C phosphatases enhanced FoxM1B transcriptional activity by 3.4-fold and 1.7-fold, respectfully (FIGS. 6B and 6D). […]
Human osteosarcoma U2OS cells were maintained in DMEM supplemented with 10% fetal calf serum, 1× Pen/Strep and 1× L-Glutamine (Gibco). […] Luciferase activity was determined as percent of wild type FoxM1B activity following normalization to Renilla activity. Experiments were performed at least four times in triplicate and mean±SD determined. […]

[4] = system: U2OS cells; experiment: Cellular uptake and localization of TRITC-tagged peptide in U2OS cells; format: cell-based, human; conditions: 12 μM, three days
[5] = system: parental U2OS cells; experiment: Soft agar colony formation, parental (wild type) U2OS cells; format: cell-based, human; conditions: 12 μM peptide, two weeks
Experimental: The T-REx™-U2OS cells were purchased from Invitrogen Life Technologies (Catalog No. R712-07). The T-REx™-U2OS cells express the Tet repressor from pCEP4/tetR that was episomally maintained in tissue culture medium containing 10% fetal calf serum and drug selection with 50 μg/ml of Hygromycin B. Tetracycline regulation in the T-REx System was based on the binding of tetracycline to the TET repressor and de-repressing of the CMV-TETO promoter controlling expression of the gene of interest (Yao et al., 1998, Hum Gene Ther 9:1939-1950). The pCDNA4-TO GFP-FoxM1B expression plasmid provided in the T-REx™ system was generated as described previously (Major et al., 2004, Mol. Cell. Biol. 24:2649-2661) and transfected T-REx™-U2OS cells with linearized pCDNA4-TO GFP-Foxm1b expression plasmid to select clonal Doxycycline inducible GFP-Foxm1b U2OS cell lines. CMV-TETO GFP-FoxM1B U2OS clones were isolated by selection for three weeks with tissue culture medium containing 50 μg/ml of Hygromycin B and 250 μg/ml of Zeocin. […] Wild type U2OS cells or CMV-TETO GFP-Foxm1b U2OS clone C3 cells were grown in medium with or without 1 μg/ml of Doxycycline for 2 days prior to either adding the (D-Arg)9-p19^ARF 26-44 peptide or left untreated. […] U2OS cell colonies that were larger than 1 mm in size were scored after two weeks of growth on the soft agar.

[6] = system: U2OS clone C3 cells; experiment: Soft agar colony formation, Doxycycline induced CMV-TETO GFP-FoxM1B U2OS clone C3 cells; format: cell-based, human; conditions: 12 μM peptide, 1 μg/ml Doxycycline, two weeks
Experimental: The T-REx™-U2OS cells were purchased from Invitrogen Life Technologies (Catalog No. R712-07). The T-REx™-U2OS cells express the Tet repressor from pCEP4/tetR that was episomally maintained in tissue culture medium containing 10% fetal calf serum and drug selection with 50 μg/ml of Hygromycin B. Tetracycline regulation in the T-REx System was based on the binding of tetracycline to the TET repressor and de-repressing of the CMV-TETO promoter controlling expression of the gene of interest (Yao et al., 1998, Hum Gene Ther 9:1939-1950). […] U2OS cell colonies that were larger than 1 mm in size were scored after two weeks of growth on the soft agar.
In addition, the tetracycline (TET) regulated T-REx™ System described above was used to conditionally express the GFP-FoxM1B protein in U2OS cells to determine whether conditional overexpression of FoxM1B protein could enhance anchorage-independent growth of U2OS cells. […] The U2OS clone C3 cell line was selected to examine whether doxycycline induced FoxM1B-GFP expression enhanced anchorage-independent growth as assessed by propagation for two weeks on soft agar (Conzen et al., 2000, Mol Cell Biol 20:6008-6018).

[7] = cotransfection of CMV expression vector, U2OS cells

In the case of “KFVRSRRPRTASCALAFVN (Mus Musculus) [V5-TAT-p19^ARF 26-44]”, the “targeting of GFP-FoxM1B protein to the nucleolus” value [1] is reported as “targeted to the nucleolus”, the “association with FoxM1B protein (Co-IP)” value [2] is reported as “sufficient to associate with the FoxM1B protein” and the FoxM1B transcriptional activity [3, 7] is reported as “able to significantly decrease FoxM1B transcriptional activity”.
For “KFVRSRRPRTASCALAFVNMLLRLERILRR (listed as Mus musculus) [V5-TAT-p19^ARF 26-55]”, the “targeting of GFP-FoxM1B protein to the nucleolus” value [1] was “targeted to the nucleolus” and the FoxM1B transcriptional activity [3, 7] was “able to significantly decrease FoxM1B transcriptional activity”.
For “rrrrrrrrrKFVRSRRPRTASCALAFVN ([dR][dR][dR][dR][dR][dR][dR][dR][dR]KFVRSRRPRTASCALAFVN; listed as Mus musculus) [(D-Arg)9-p19^ARF 26-44 peptide, p19ARF 26-44 peptide containing nine D-Arg residues at the N-terminus]”, the “transduction into cells and localization of peptide fluorescence” value [4] was “efficiently transduced into all of the cells and that its fluorescence localized to the nucleolus; also recorded: transduced into the cell and was localized to the nucleolus”, the “colony formation on soft agar” value [5] was “significantly diminished the ability of the parental U2OS cells to form colonies on soft agar; also recorded: significantly inhibited colony formation of U2OS cells on soft agar” and the FoxM1B transcriptional activity ([3]; 12 μM peptide, 24 hours, transfected U2OS cells) was “significant reduction in FoxM1B transcriptional activity; also recorded: effective inhibitor of FoxM1B transcriptional activity”. The “FoxM1B induced colony formation on soft agar” value [6] was “significantly diminished the ability of induced GFP-FoxM1B to stimulate colony formation”.
For `O=C1Cc2c([nH]c3ccc([N+](=O)[O-])cc23)-c2ccccc2N1` [Alsterpaullone, reference compound], the “nuclear localization of transfected CMV GFP-FoxM1B protein” value ([1]; Alsterpaullone 1 μM) was “Neither DN-Cdk1 nor Alsterpaullone (1 μM) altered nuclear localization”.
